{"source": "patent US20260007760A1", "about": "“CAMPTOTHECIN DERIVATIVES THAT BIND TO DDX5 PROTEIN AND PRODRUGS THEREOF” (priority 2022, published 2026)", "key": {"[1]": {"conditions": "days 1 and 8 of a 21-day cycle, 25 patients; cited from earlier work"}, "[2]": {"conditions": "human, in vivo; cited from earlier work"}, "[3]": {"tested_on": "Survivin, cIAP2, Mcl-1, XIAP", "test": "Western blot, expression inhibition of anti-apoptotic proteins in FaDu cell line", "format": "cell-based", "conditions": "Western blot, 0, 10, 100 nM, 24 hours"}, "[4]": {"test": "Lactone to carboxylate form conversion in pH 7.4 (RP-HPLC)", "format": "physicochemical", "conditions": "for Conversion from lactone form (active) to carboxylate form (inactive) compared with reference compounds: pH 7.4, references exatecan, DXd, SN-38, FL118"}, "cancer cells": {"tested_on": "cancer cells", "conditions": "cited from earlier work"}, "DDX5": {"biological_target": "DDX5 (Homo sapiens, UniProt P17844)", "sequence (P17844 whole entry)": "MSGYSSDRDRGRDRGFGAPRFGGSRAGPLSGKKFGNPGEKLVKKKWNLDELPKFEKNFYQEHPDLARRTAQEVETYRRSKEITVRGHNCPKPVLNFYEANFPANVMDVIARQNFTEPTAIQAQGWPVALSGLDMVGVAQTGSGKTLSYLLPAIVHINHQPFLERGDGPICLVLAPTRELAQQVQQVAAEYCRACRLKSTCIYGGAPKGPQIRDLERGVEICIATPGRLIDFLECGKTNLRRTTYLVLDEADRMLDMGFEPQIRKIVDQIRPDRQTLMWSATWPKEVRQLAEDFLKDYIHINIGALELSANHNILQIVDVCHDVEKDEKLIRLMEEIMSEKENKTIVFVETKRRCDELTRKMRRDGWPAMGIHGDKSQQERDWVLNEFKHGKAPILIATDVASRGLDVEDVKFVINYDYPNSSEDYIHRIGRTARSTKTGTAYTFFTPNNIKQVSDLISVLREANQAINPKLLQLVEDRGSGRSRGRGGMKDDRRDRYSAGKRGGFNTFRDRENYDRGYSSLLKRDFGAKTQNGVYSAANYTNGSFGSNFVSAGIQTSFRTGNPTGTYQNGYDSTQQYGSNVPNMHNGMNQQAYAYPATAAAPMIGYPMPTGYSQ", "test": "Western blot, DDX5 degradation in two cell lines (FaDu, A549)", "conditions": "FaDu and A549, 0, 10, 100 nM"}, "[5]": {"conditions": "over 21 days; bioconjugated to anti-HER2 antibody, DAR 8; cited from earlier work"}, "[6]": {"conditions": "mouse, in vivo, ip"}, "[7]": {"tested_on": "MDA-MB-453 (HER2++) cell line", "test": "Cell viability assay (CellTiter-Glo), MDA-MB-453 cell line", "conditions": "MDA-MB-453 and FaDu cell lines, 3 days"}, "[8]": {"tested_on": "FaDu (Trop2+++) cell lines and Calu-6 (Trop2−−) cell lines", "test": "In vitro cell cytotoxicity test of Sacituzumab-25-6 (6 days)", "conditions": "free payload"}, "FaDu cell line": {"tested_on": "FaDu cell line", "test": "Cell viability assay (CellTiter-Glo), FaDu cell line", "format": "cell-based", "conditions": "FaDu (does not express ABCG2), 3-day incubation", "experimental": "After 24 hours, the cells were treated with 100 μl of drugs at 9 concentrations (serial dilutions of 1/5 each from 1,000 nM). […] Also, a control group (drug concentration 0) that was not treated with drugs was prepared. Incubation at constant temperature (37° C., 5% CO2) was performed for 3 or 6 days. 100 ul of CellTiter-Glo reagent (using CellTiter-Glo® Luminescent Cell Viability Assay kit (Promega, G7571)) was added to each well and pipetted. After incubating at constant temperature (RT) for 10 minutes, luminescence was measured.\nCell viability assays were performed on MDA-MB-453 (HER2++) cell lines and FaDu (HER2+) cell lines using the same method as Example 2-2."}}}
{"compound": "sacituzumab govitecan", "values": [{"measurement": "Dose-limiting toxicity", "setting": "[1]", "value": "neutropenia"}, {"measurement": "Diarrhea, all-grade", "setting": "[2]", "value": 65, "unit": "%"}, {"measurement": "Febrile neutropenia", "setting": "[2]", "value": 7, "unit": "%"}, {"measurement": "Neutropenia, Grade≥3", "setting": "[2]", "value": 47, "unit": "%"}, {"measurement": "Neutropenia, all-grade", "setting": "[2]", "value": 61, "unit": "%"}, {"measurement": "Neutropenic colitis", "setting": "[2]", "value": 0.5, "unit": "%"}]}
{"compound": "CC[C@@]1(O)C(=O)OCc2c1cc1n(c2=O)Cc2c-1nc1cc3c(c4c1c2[C@@H](NC(=O)CO)CC4)OCO3", "note": "[PBX-7014]", "values": [{"measurement": "Expression of anti-apoptotic proteins (Survivin, cIAP2, Mcl-1, XIAP)", "setting": "[3]", "value": "decrease in the expression of Survivin, cIAP2, Mcl-1, and XIAP as the concentration increased"}, {"measurement": "Rate of conversion from the lactone form to the carboxylate form", "setting": "[4]; pH 7.4, 37° C.", "value": 0.8, "unit": "% per minute"}, {"measurement": "Conversion from lactone form (active) to carboxylate form (inactive) compared with reference compounds", "setting": "[4]", "value": "more rapidly and at a higher rate than other reference compounds"}]}
{"compound": "CC[C@@]1(O)C(=O)OCc2c1cc1n(c2=O)Cc2cc3cc4c(cc3nc2-1)OCO4", "note": "[FL118]", "values": [{"measurement": "Expression of anti-apoptotic proteins (Survivin, cIAP2, Mcl-1, XIAP)", "setting": "[3]", "value": "strongly inhibiting the expression of anti-apoptotic proteins"}, {"measurement": "Cytotoxicity relative to SN-38 (times more potent)", "setting": "cancer cells; various cancer cell lines", "value": "5-10 times"}, {"measurement": "DDX5 degradation", "setting": "DDX5", "value": "superior to other substances in DDX5 degradation"}]}
{"compound": "CCc1c2c(nc3ccc(O)cc13)-c1cc3c(c(=O)n1C2)COC(=O)[C@]3(O)CC", "note": "[SN-38]", "values": [{"measurement": "IC50 values", "setting": "cancer cells; several cell lines", "value": "nanomolar range"}]}
{"compound": "CC[C@@]1(O)C(=O)OCc2c1cc1n(c2=O)Cc2c-1nc1cc(F)c(C)c3c1c2[C@@H](NC(=O)CO)CC3", "note": "[Dxd]", "values": [{"measurement": "Degree of formation of the carboxylate form", "setting": "[4]; pH 7.4, 37° C.", "value": "about 76.5%"}, {"measurement": "Rate of conversion from the lactone form to the carboxylate form", "setting": "[4]; pH 7.4, 37° C.", "value": 0.6, "unit": "% per minute"}, {"measurement": "Activity in cancer cells relative to SN-38", "setting": "cancer cells", "value": 10, "unit": "times"}, {"measurement": "Released in plasma", "setting": "[5]", "value": 2.1, "unit": "%"}]}
{"compound": "CC[C@@]1(O)C(=O)OCc2c1cc1n(c2=O)Cc2c-1nc1cc3c(c4c1c2[C@@H](N)CC4)OCO3", "note": "[PBX-7011, (1S,10S)-1-amino-10-ethyl-10-hydroxy-1,2,3,10,13,16-hexahydro-11H,14H-benzo[de][1,3]dioxolo[4,5-g]pyrano[3′,4′:6,7]indolizino[1,2-b]quinoline-11,14-dione]", "values": [{"measurement": "Expression of anti-apoptotic proteins (Survivin, cIAP2, Mcl-1, XIAP)", "setting": "[3]", "value": "decrease in the expression of Survivin, cIAP2, Mcl-1, and XIAP as the concentration increased"}]}
{"compound": "CC[C@@]1(O)C(=O)OCc2c1cc1n(c2=O)Cc2c-1nc1cc3c(c4c1c2[C@@H](NC(=O)[C@@H](C)O)CC4)OCO3", "note": "[PBX-7016]", "values": [{"measurement": "Expression of anti-apoptotic proteins (Survivin, cIAP2, Mcl-1, XIAP)", "setting": "[3]", "value": "decrease in the expression of Survivin, cIAP2, Mcl-1, and XIAP as the concentration increased"}, {"measurement": "Rate of conversion from the lactone form to the carboxylate form", "setting": "[4]; pH 7.4, 37° C.", "value": 0.8, "unit": "% per minute"}, {"measurement": "Conversion from lactone form (active) to carboxylate form (inactive) compared with reference compounds", "setting": "[4]", "value": "more rapidly and at a higher rate than other reference compounds"}, {"measurement": "Clearance from the blood", "setting": "[6]", "value": "cleared from the blood very quickly"}, {"measurement": "IC50 level compared with Dxd", "setting": "[7]", "value": "equivalent to or higher than Dxd"}, {"measurement": "Cell membrane penetration of non-target cells / cell death", "setting": "[8]", "value": "can penetrate the cell membrane of non-target cells"}, {"measurement": "DDX5 degradation", "setting": "DDX5", "value": "inhibited DDX5 in a concentration-dependent manner"}]}
{"compound": "CC[C@@]1(O)C(=O)OCc2c1cc1n(c2=O)Cc2c-1nc1cc(F)c(C)c3c1c2[C@@H](N)CC3", "note": "[Exatecan]", "values": [{"measurement": "Expression of anti-apoptotic proteins (Survivin, cIAP2, Mcl-1, XIAP)", "setting": "[3]", "value": "strongly inhibits the expression of anti-apoptotic proteins"}]}
{"compound": "CC[C@@]1(O)C(=O)OCc2c1cc1n(c2=O)Cc2c-1nc1cc3c(c4c1c2[C@@H](NC(=O)[C@@H](O)C1CC1)CC4)OCO3", "note": "[PBX-7024]", "values": [{"measurement": "Cell killing efficacy (IC50)", "setting": "FaDu cell line", "value": "strong cell killing efficacy"}, {"measurement": "Conversion from lactone form (active) to carboxylate form (inactive) compared with reference compounds", "setting": "[4]", "value": "more rapidly and at a higher rate than other reference compounds"}]}
